Test system: 18 tumor cell strains
Assay: In vitro efficacy screening, summary over the tumor cell strains
Type: cell-based, human

For `C#Cc1ccc(C(N)=O)cc1[N+](=O)[O-]` [Compound I-1, 4-ethynyl-3-nitrobenzamide], the “efficacy relative to the positive drug BSI-201” value (in the measured 18 tumor cell strains) was 10 times and the “inhibitory effects on tumor cell proliferation (in words)” value (in vitro screening, BSI-201 as positive drug) was “have inhibitory effects on tumor cell proliferation”.

From patent US8946478B2, “Benzamide derivative with anticancer activity and preparation method and use thereof” (Zhejiang Hisun Pharmaceutical Co., Ltd., priority 2010, dated 2015)
